In patent US20110021575A1, “PENETRATION ENHANCERS FOR INSECTICIDAL AGENTS” (priority 2006, published 2011):

Experiment: Penetration test: penetration of active substance through enzymatically isolated apple leaf cuticles in diffusion cells
Format: in vitro ADME, apple trees of the Golden Delicious variety
Details: cuticular penetration of imidacloprid, at 20° C., 60%, imidacloprid 0.3 g/l (ai alone) or 0.2 g/l (with surfactant), mean values of 5-8 repetitions
Procedure: In this test, the penetration of active substances through enzymatically isolated cuticles of apple tree leaves was measured.
Leaves which were cut off in the stage of full development of apple trees of the Golden Delicious variety were used. The isolation of the cuticles was effected in a manner such that • first leaf discs marked on the underside with dye and punched out were filled by means of vacuum infiltration with a pectinase solution (0.2 to 2% strength) buffered to a pH between 3 and 4, • sodium azide was then added and • the leaf discs thus treated were allowed to stand until disintegration of the original leaf structure and detachment of the noncellular cuticle.
Thereafter, only those cuticles of the upper sides of the leaves which were free of staltoa and hairs were further used. They were washed several times alternately with water and a buffer solution at pH 7. The clean cuticles obtained were finally drawn onto small Teflon plates and smoothed and dried with a gentle air jet.
In the next step, the cuticle membranes thus obtained were placed in stainless steel diffusion cells (=transport chambers) for membrane transport investigations. For this purpose, the cuticles were placed by means of forceps centrally on the silicone grease-coated edges of the diffusion cells and closed with a likewise greased ring. The arrangement was chosen so that the morphological outside of the cuticles faced outwards, i.e. towards the air, while the original inside faced the interior of the diffusion cell. The diffusion cells were filled with water or with a mixture of water and solvent. […]
After the application of the spray liquors, in each case the water was allowed to evaporate, and in each case the chambers were then turned around and were placed in thermostated trays, air having a defined temperature and atmospheric humidity being blown onto the outside of the cuticle. […] The active substance penetration was measured with radioactively marked active substance.

## O=[N+]([O-])NC1=NCCN1Cc1ccc(Cl)nc1 [Imidacloprid (ai), imidacloprid]
After 5 hours
  Penetration after 5 hours: 0.1%
After 1 day
  Penetration after 1 day: 0.3%
After 2 days
  Penetration after 2 days: 0.5%
